The record followed here is ChEMBL document CHEMBL1145566, “Synthesis of BC-ring model of globostellatic acid X methyl ester, an anti-angiogenic substance from marine sponge” (Bioorg Med Chem Lett, 2008).

Active and inactive are the calls of the source. The calls are words filed in the database; no cut-off is given here.

A word on the IC50: it is the point on the concentration scale where inhibition reaches its midpoint.

Common to all, as to type: functional, cell-based
The nature of test [1]: Antiproliferative activity against human KB3-1 cells after 72 hrs. The note with it: KB 3-1, 72 h.
Test [2] deals with HUVEC. In words: Antiproliferative activity against human HUVEC cells after 72 hrs.
Test [3] deals with HUVEC. In words: Inhibition of VEGF-induced migration in human HUVEC cells.
Test [4] concerns HUVEC. As to the kind of experiment: Inhibition of VEGF-induced tubular formation in human HUVEC cells.

As to `CC(C)=C/C=C/C(C)=C/C=C/C(C)=C1/C(=O)C[C@H]2CC(=O)CC[C@]12C`, the results for the 50% inhibitory concentration (IC50) (in test [1]; with HUVEC [2]) were 17 µM and 2.6 µM, respectively.

With `COC(=O)[C@]1(C)[C@@H]2CC[C@]3(C)\C(=C(C)/C=C/C=C(C)/C=C/C=C(C)C)C(=O)C[C@H]3[C@@]2(C)CC[C@H]1OC(C)=O` (stereo in doubt), the result in the test on HUVEC [3] and in the test with HUVEC [4] was Active. Besides, the half-inhibitory concentration (IC50) in test [1] stood at 14 µM; with HUVEC [2] it was 0.09 µM.

Consider `CC(C)=C/C=C/C(C)=C/C=C/C(C)=C1/C(=O)C[C@H]2CC3(CC[C@]12C)OCCO3`, for which the IC50 stood at 20 µM in test [1] and 13 µM with HUVEC [2].

For `CC(C)=C/C=C/C(C)=C/C=C/C(C)=C1/CC[C@H]2CC3(CC[C@]12C)OCCO3`, the figures for the IC50 (in test [1]; in the test on HUVEC [2]) were 21 µM and 8.8 µM, respectively.

For `COC(=O)[C@]1(C)[C@@H]2CC[C@]3(C)/C(=C(C)/C=C/C=C(C)/C=C/C=C(C)C)C(=O)C[C@H]3[C@@]2(C)CC[C@H]1OC(C)=O` (stereo in doubt), the outcome in the test on HUVEC [3] and in the test with HUVEC [4] was Active.

As to `COC(=O)[C@]1(C)[C@@H]2CC[C@]3(C)\C(=C(C)/C=C/C=C(C)\C=C\C=C(C)C)C(=O)C[C@H]3[C@@]2(C)CC[C@H]1OC(C)=O` (stereo in doubt), the result in the test with HUVEC [3] and in the test on HUVEC [4] was Active.

Take `COC(=O)[C@]1(C)[C@@H]2CC[C@]3(C)/C(=C(C)/C=C/C=C(C)\C=C\C=C(C)C)C(=O)C[C@H]3[C@@]2(C)CC[C@H]1OC(C)=O` (stereo in doubt): the result in the test with HUVEC [3] and in the test on HUVEC [4] was Active.
